ChEMBL document CHEMBL4130636, “Contilisant, a Tetratarget Small Molecule for Alzheimer's Disease Therapy Combining Cholinesterase, Monoamine Oxidase Inhibition, and H3R Antagonism with S1R Agonism Profile” (J Med Chem, 2018)
Active and inactive are the calls of the source. The calls are words filed in the database; no cut-off is given here.

Key:
Mus musculus [1] = assay: (§1) Cognitive enhancing effect in amyloid beta (1 to 42)-induced dementia Balb/c mouse model assessed as protection against spatial memory impairment by measuring latency to find food on third and fourth days of test at 10 mg/kg, po qd via gavage for 17 days starting from 24 hrs post amyloid beta (1 to 42) oligomer treatment measured on day 14 by radial arm-maze test; assay type: functional, organism-based
Mus musculus [2] = assay: Cognitive enhancing effect in Balb/c mouse assessed as protection against amyloid beta (1 to 42) oligomers-induced memory damage at 10 mg/kg, po qd via gavage for 17 days starting from 24 hrs post amyloid beta (1 to 42) oligomer treatment measured on day 14 by Y-maze test; assay type: functional, organism-based
Mus musculus [3] = assay: as §1, with “reduction in total errors” for “latency”; assay type: functional, organism-based
Mus musculus [4] = assay: as §1, with “food on fourth day” for “food on third and fourth days”, “on fourth day of test” for “and fourth days of test”, “test at 1 to 10 mg/kg,” for “test at 10 mg/kg,”; assay type: functional, organism-based
[5] = molecular target: Sigma non-opioid intracellular receptor 1 (Homo sapiens, UniProt Q99720); assay: Displacement of (+)-[3H]pentazocine from human sigma1 receptor expressed in HEK293 cell membranes after 60 mins by liquid scintillation counting method
[6] = molecular target: T1, Vesicular acetylcholine transporter (Rattus norvegicus, UniProt Q62666); assay: Displacement of (-)-[3H]vesamicol from rat VAChT expressed in rat PC12 cell membranes after 60 mins by liquid scintillation counting method
T1 sequence (Q62666 whole entry): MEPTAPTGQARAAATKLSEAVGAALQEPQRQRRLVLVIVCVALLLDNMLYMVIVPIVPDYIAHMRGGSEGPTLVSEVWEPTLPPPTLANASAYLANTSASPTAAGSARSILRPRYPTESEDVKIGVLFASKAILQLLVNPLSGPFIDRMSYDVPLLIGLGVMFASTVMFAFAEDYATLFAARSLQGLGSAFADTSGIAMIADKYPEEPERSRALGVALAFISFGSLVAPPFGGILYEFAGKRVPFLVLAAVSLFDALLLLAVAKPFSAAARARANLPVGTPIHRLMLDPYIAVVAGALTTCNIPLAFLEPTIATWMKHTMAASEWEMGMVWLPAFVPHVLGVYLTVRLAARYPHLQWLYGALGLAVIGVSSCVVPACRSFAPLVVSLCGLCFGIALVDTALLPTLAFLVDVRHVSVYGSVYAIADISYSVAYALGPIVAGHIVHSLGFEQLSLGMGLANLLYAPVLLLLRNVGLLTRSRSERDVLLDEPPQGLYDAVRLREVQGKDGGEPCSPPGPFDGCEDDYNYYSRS

Mus musculus [7] = assay: Cognitive enhancing effect in Balb/c mouse assessed as protection against amyloid beta (1 to 42) oligomers-induced memory damage at 1 to 10 mg/kg, po qd via gavage for 17 days starting from 24 hrs post amyloid beta (1 to 42) oligomer treatment measured on day 14 by Y-maze test; assay type: functional, organism-based
Mus musculus [8] = assay: as §1, with “by measuring reduction in total errors to find” for “by measuring latency to find”, “test at 1 to 10 mg/kg,” for “test at 10 mg/kg,”; assay type: functional, organism-based
[9] = Selectivity ratio of Ki for sigma2 receptor in rat liver membranes to Ki for human sigma1 receptor expressed in HEK293 cell membranes; assay type: cell-based
[10] = molecular target: T2, Sigma intracellular receptor 2 (Rattus norvegicus, UniProt Q5U3Y7); assay: Displacement of [3H]DTG from sigma2 receptor in rat liver membranes after 60 mins by liquid scintillation counting method; assay type: cell membranes, Membrane
T2 sequence (Q5U3Y7 whole entry): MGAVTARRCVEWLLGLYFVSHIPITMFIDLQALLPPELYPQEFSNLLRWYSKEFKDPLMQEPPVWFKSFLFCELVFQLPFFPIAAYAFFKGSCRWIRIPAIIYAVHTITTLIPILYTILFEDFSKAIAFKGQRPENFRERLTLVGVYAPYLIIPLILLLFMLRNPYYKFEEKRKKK

Mus musculus [11] = assay: In vivo antagonist activity at sigma1 receptor in sc dosed capsaicin-induced mechanical allodynia CD-1 mouse model assessed as increase in paw withdrawal latency pretreated for 30 mins followed by capsaicin treatment measured after 2 hrs; assay type: functional, organism-based
Mus musculus [12] = assay: as §1, with “by measuring reduction in total errors to find” for “by measuring latency to find”, “food on second, third and” for “food on third and”, “test at 1 to 10 mg/kg,” for “test at 10 mg/kg,”; assay type: functional, organism-based
Acetylcholinesterase = Acetylcholinesterase (Homo sapiens, UniProt P22303); assay: Inhibition of recombinant human AChE using acetylthiocholine iodide as substrate by Ellman's method
Mus musculus [13] = assay: In vivo agonist activity at sigma1 receptor in sc dosed capsaicin-induced mechanical allodynia CD-1 mouse model assessed as decrease in paw withdrawal latency pretreated for 30 mins followed by capsaicin treatment measured after 2 hrs; assay type: functional, organism-based
Mus musculus [14] = assay: as §1, with “food on second, third and” for “food on third and”, “test at 1 to 10 mg/kg,” for “test at 10 mg/kg,”; assay type: functional, organism-based
Histamine H3 receptor = Histamine H3 receptor (Homo sapiens, UniProt Q9Y5N1); assay: Displacement of [3H]-N-alpha-methylhistamine from human H3R expressed in HEK293 cell membranes after 90 mins by liquid scintillation counting method
Mus musculus [15] = assay: Induction of memory damage in Balb/c mouse at 1 to 10 mg/kg, po qd via gavage for 17 measured on day 14 by Y-maze test; assay type: organism-based; settings: in vivo
Cholinesterase = Cholinesterase (Homo sapiens, UniProt P06276); assay: Inhibition of human plasma BuChE using acetylthiocholine iodide as substrate by Ellman's method
Cholinesterase, sequence (P06276 whole entry): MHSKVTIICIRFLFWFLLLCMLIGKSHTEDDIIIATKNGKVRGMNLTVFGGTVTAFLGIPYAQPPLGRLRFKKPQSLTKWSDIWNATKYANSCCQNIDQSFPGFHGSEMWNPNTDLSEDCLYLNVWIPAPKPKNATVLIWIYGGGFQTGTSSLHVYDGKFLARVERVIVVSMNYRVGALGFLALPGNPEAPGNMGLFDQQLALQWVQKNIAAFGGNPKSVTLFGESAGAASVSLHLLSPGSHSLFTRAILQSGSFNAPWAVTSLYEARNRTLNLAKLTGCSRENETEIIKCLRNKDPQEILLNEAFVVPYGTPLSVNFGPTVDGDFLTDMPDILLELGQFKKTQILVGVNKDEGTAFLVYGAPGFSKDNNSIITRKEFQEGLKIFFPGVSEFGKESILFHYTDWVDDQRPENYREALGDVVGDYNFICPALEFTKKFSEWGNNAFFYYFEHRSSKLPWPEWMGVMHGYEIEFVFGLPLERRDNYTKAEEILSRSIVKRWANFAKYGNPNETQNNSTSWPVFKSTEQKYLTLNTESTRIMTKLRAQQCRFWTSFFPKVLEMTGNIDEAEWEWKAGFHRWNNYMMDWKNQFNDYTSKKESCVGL

Sigma non-opioid intracellular receptor 1, sequence (Q99720 whole entry): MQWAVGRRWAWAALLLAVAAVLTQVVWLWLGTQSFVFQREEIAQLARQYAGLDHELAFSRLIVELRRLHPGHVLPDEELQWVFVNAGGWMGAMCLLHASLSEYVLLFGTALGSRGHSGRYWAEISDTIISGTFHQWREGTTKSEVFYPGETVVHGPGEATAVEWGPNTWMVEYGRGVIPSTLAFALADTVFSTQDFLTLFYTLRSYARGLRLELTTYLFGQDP
Acetylcholinesterase, sequence (P22303 whole entry): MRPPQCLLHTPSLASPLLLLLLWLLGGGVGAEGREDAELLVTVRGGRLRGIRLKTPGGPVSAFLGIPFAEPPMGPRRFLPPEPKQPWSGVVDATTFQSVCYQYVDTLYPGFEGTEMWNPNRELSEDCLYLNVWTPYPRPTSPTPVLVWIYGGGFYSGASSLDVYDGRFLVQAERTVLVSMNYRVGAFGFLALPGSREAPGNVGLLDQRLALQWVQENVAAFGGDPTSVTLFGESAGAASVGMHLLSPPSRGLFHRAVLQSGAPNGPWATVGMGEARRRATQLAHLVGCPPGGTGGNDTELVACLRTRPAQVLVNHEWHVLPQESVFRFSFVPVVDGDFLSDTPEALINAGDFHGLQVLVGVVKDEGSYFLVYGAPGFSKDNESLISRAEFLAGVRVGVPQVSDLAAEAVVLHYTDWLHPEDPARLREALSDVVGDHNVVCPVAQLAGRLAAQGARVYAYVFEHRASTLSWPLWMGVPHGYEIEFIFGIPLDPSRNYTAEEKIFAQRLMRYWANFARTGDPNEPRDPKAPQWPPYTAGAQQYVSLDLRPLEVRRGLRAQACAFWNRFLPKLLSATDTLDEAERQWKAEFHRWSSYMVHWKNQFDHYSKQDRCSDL
Histamine H3 receptor, sequence (Q9Y5N1 whole entry): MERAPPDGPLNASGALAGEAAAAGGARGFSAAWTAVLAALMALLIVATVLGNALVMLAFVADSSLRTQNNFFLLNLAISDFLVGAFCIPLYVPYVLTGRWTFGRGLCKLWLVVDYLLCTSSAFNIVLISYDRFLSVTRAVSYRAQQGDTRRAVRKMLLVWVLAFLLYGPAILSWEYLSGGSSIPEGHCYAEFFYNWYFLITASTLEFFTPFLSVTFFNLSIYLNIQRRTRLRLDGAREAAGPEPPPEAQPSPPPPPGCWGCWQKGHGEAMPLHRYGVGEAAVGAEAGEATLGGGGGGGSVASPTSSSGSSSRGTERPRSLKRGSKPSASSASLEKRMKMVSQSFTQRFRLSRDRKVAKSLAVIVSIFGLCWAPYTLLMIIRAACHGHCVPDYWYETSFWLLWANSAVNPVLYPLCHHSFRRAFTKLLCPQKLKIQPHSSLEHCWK

With COc1cc2c(cc1OC)C(=O)C(CC1CCN(Cc3ccccc3)CC1)C2 (stereo not given) the Activity (Mus musculus [1]) was “Active”, the Activity (Mus musculus [2]) was “Active” and the Activity (Mus musculus [3]) was “Active”.

With C#CCN(C)Cc1cc2cc(OCCCC3CCN(Cc4ccccc4)CC3)ccc2n1C the Activity (Mus musculus [4]) was “Active”, the Ki [5] was 2.83 nM and the Ki [6] was 2.58 nM. For the same compound, the Activity (Mus musculus [7]) was “Active”, the Activity (Mus musculus [8]) was “Active” and the Ratio Ki [9] was 18. The Ki [10] was 50.3 nM and the inhibition (Mus musculus [11]) was “Dose-dependent effect”.

For OC1CCCCC1N1CCC(c2ccccc2)CC1 (racemic), the Ki [10] was 63.4 nM.

Work on COc1ccc(CCN2CCN(CCCc3ccccc3)CC2)cc1OC [[11C]SA4503] yielded a Ki [6] of 492 nM and a Ki [10] of 62.2 nM.

For C#CCN(C)Cc1cc2cc(OCCCN3CCCCC3)ccc2n1C, the Ki [5] was 65.2 nM, the Activity (Mus musculus [12]) was “Active” and the IC50 (Acetylcholinesterase) was 530 nM. For the same compound, the Ki [6] was 46.3 nM, the Activity (Mus musculus [7]) was “Active” and the Activity (Mus musculus [13]) was “Dose-dependent effect”. The Activity (Mus musculus [14]) was “Active”, the Ki (Histamine H3 receptor) was 10.8 nM and the Ki [10] was 326 nM. The Activity (Mus musculus [15]) was “Non-Toxic” and the IC50 (Cholinesterase) was 1690 nM.
